Measured values: article PMC4748418 (Journal of chromatography. A, 2015)

Assays:
[1] = biological target: α3β4 nAChR (Homo sapiens, UniProt P30926+P32297); assay: biochemical
[2] = biological target: T1, α3β4α5 nAChR (Homo sapiens, UniProt P30532+P30926+P32297); assay: biochemical
[3] = biological target: T1, α3β4α5 nAChR; conditions: agonist binding site

T1 sequence (P32297 32-505): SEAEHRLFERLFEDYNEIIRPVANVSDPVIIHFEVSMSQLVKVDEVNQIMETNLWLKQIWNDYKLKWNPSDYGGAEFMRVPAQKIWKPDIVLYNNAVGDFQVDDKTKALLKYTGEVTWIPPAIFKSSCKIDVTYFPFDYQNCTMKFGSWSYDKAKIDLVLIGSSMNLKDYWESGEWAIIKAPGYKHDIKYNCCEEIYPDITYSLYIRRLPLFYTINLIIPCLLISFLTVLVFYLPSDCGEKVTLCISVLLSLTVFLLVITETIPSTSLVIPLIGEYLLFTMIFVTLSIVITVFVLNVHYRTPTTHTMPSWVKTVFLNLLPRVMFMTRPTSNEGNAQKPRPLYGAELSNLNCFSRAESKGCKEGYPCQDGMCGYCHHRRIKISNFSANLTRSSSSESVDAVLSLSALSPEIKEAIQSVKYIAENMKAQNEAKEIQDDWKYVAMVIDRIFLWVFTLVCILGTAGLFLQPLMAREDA
T1 sequence (P30926 22-498): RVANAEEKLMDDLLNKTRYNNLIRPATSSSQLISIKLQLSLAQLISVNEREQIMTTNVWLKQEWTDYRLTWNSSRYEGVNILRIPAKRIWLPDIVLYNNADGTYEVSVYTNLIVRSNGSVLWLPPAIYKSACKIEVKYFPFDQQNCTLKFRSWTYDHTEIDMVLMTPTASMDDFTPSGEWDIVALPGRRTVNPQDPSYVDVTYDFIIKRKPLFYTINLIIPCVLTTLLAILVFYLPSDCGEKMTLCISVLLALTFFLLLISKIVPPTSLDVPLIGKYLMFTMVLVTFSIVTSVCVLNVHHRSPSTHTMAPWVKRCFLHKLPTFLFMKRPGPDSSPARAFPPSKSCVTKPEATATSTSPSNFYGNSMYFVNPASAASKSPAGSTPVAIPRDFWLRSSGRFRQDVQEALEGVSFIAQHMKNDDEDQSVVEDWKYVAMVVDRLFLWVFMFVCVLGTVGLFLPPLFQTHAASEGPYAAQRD
T1 sequence (P30532 23-468): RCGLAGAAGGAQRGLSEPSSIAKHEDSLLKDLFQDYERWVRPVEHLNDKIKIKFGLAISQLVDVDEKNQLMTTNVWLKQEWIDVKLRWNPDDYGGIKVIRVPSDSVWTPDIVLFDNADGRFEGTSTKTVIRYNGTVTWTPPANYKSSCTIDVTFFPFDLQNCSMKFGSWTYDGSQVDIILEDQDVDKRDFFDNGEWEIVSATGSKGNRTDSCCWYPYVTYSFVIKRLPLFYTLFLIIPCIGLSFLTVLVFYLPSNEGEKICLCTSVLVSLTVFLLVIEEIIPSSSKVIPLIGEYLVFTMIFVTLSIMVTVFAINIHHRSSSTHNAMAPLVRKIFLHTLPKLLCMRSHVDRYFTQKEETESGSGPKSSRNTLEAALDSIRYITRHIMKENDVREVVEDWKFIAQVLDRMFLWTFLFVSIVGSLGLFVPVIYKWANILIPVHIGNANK
α3β4 nAChR, sequence (P32297 32-505): as the sequence (P32297 32-505) above
α3β4 nAChR, sequence (P30926 22-498): as the sequence (P30926 22-498) above

Structure (SMILES) | Kd [1] | Ki [1] | Kd [2] | Ki [2] | subtype selectivity between α3β4 and α3β4α5 nicotinic receptors [3] | higher affinity for the α3β4α5 nAChR vs the α3β4 nAChR [3]
c1cncc([C@@H]2CCCN2)c1 [Nornicotine] | 36 nM | 35.6 ± 18.9 nM | 21 nM | 20.8 ± 11.7 nM | no subtype selectivity | 
c1cncc([C@@H]2CCCCN2)c1 [Anabasine] |  | 528 ± 136 nM |  | 67.5 ± 25.8 nM | selective for the α3β4α5 nicotinic receptor | 10 fold
O=c1cccc2n1C[C@@H]1CNC[C@H]2C1 [Cytisine] | 8.5 nM | 8.52 ± 5.7 nM | 5.4 nM | 5.4 ± 3.5 nM |  | 
